Measurements: patent US20260242335A1, “HETEROCYCLOALKYL BETA-HYDROXY ALKYL AMINES FOR USE IN THE TREATMENT OF HYPERGLYCAEMIA AND DISORDERS CHARACTERISED BY HYPERGLYCAEMIA” (ATROGI AB, priority 2023, published 2026)
Where a name gives a salt, the structure may show the parent alone.

Assays:
L6-myotubes [1] = assay: Measurement of intracellular cAMP levels (alpha screen cAMP kit) in differentiated cells, compared to isoproterenol; type: cell-based; conditions: 0.25 h, compound at 10 μM vs isoproterenol at 10 μM, 15 min stimulation, read-out: Biological example 2: intracellular cAMP level activity compared to that of isoproterenol
Protocol: (§1) L6-myoblasts were grown in Dulbecco's Modified Eagle's Medium (DMEM) containing 1 g/L glucose supplemented with 10% fetal bovine serum, 2 mM L-Glutamine, 50 U/mL penicillin, […] streptomycin and 10 mM HEPES. Cells were plated at 1×10^5 cells per mL in 24-well plates. After reaching 90% confluence the cells were grown in medium containing 2% FBS for 7 days where upon cells differentiated into myotubes.
Differentiated cells were serum-starved overnight and stimulated with an agonist, final concentration 1×10^−5 M, for 15 min in stimulation buffer (HBSS supplemented with 1% BSA, 5 mM HEPES and 1 mM IBMX, pH 7.4). The medium was aspirated and 100 μL of 95% EtOH was added to each well of the 24-well plate and cells were kept at −20° C. overnight. The EtOH was allowed to evaporate and 500 μL of lysis buffer (1% BSA, 5 mM HEPES and 0.3% Tween-20, pH 7.4) was added to each well. The plate was kept at −80° C. for 30 min and then at −20° C. until the day of detection when the samples were thawed. Intracellular cAMP levels were detected using an alpha screen cAMP kit (6760635D from Perkin Elmer). The activity for each compound is compared to that of isoproterenol.

L6-myotubes [2] = assay: Glucose uptake (3H-2-deoxyglucose) in differentiated L6-myotubes, compared to isoproterenol; type: cell-based; conditions: compound at 10 μM vs isoproterenol at 10 μM, read-out: Biological example 1: glucose uptake activity compared to that of isoproterenol
Protocol: as §1
Differentiated L6-myotubes were serum-starved overnight in medium containing 0.5% fatty-acid free BSA and stimulated with an agonist, with a final concentration of 1×10^−5 M. After 1 h 40 min the cells were washed with warm glucose free medium or PBS twice and another portion of agonist was added to the glucose free medium. After 20 min the cells were exposed to 50 nM ^3H-2-deoxyglucose for another 10 min before washed in ice cold glucose free medium or PBS three times and lysed in 400 μL/well 0.2 M NaOH for 1 h at 60° C. The cell lysate was mixed with 4 mL scintillation buffer (Emulsifier Safe, Perkin Elmer) and the radioactivity was detected in a p-counter (Tri-Carb 4810TR, Perkin Elmer). The activity for each compound is compared to that of isoproterenol.

| SMILES | Emax at 10 µM (L6-myotubes [1]) | Emax at 10 µM (L6-myotubes [2]) |
| --- | --- | --- |
| CN1CCC[C@@H](CC(C)(C)NC[C@H](O)c2cccc(F)c2)C1 [Example 10, (R)-1-(3-Fluorophenyl)-2-((2-methyl-1-((S)-1-methylpiperidin-3-yl)-propan-2-yl)amino)ethan-1-ol] | < 25% | > 75% |
| CC(C)(CC1CCN(C(=O)C(F)(F)F)CC1)NC[C@H](O)c1cccc(F)c1 [Example 42, (R)-2,2,2-Trifluoro-1-(4-(2-((2-(3-fluorophenyl)-2-hydroxyethyl)-amino)-2-methylpropyl)piperidin-1-yl)ethan-1-one] | < 25% | 25 to 50% |
| CN(C)C(=O)N1CCC(CC(C)(C)NC[C@H](O)c2cncc(F)c2)CC1 [Example 50, (R)-4-(2-((2-(5-Fluoropyridin-3-yl)-2-hydroxyethyl)amino)-2-methyl-propyl)-N,N-dimethylpiperidine-1-carboxamide dihydrochloride] | < 25% | 50 to 75% |
| CC(C)(C[C@@H]1CCCN(C(=O)C(C)(C)C)C1)NC[C@H](O)c1cncc(F)c1 [Example 15, 1-((S)-3-(2-(((R)-2-(5-Fluoropyridin-3-yl)-2-hydroxyethyl)amino)-2-methylpropyl)piperidin-1-yl)-2,2-dimethylpropan-1-one] | < 25% | > 75% |
| CNC(=O)N1CCC[C@@H](CC(C)(C)NC[C@H](O)c2cncc(F)c2)C1 [Example 19, (S)-3-(2-(((R)-2-(5-Fluoropyridin-3-yl)-2-hydroxyethyl)amino)-2-methylpropyl)-N-methylpiperidine-1-carboxamide dihydrochloride] | 50 to 75% | > 75% |
| CC(C)(C[C@@H]1CCCN(C(=O)C(F)(F)F)C1)NC[C@H](O)c1cncc(F)c1 [Example 16, 2,2,2-Trifluoro-1-((S)-3-(2-(((R)-2-(5-fluoropyridin-3-yl)-2-hydroxy-ethyl)amino)-2-methylpropyl)piperidin-1-yl)ethan-1-one] | < 25% | > 75% |
| CC(C)(C[C@@H]1CCCNC1)NC[C@H](O)c1cccc(C(F)(F)F)n1 [Example 21, (S)-2-((2-Methyl-1-((S)-piperidin-3-yl)propan-2-yl)amino)-1-(6-(trifluoromethyl)pyridin-2-yl)ethan-1-ol] | < 25% | 50 to 75% |
| CC(C)(C[C@H]1CCNC(=O)C1)NC[C@H](O)c1cncc(F)c1 [Example 54, (R)-4-(2-(((R)-2-(5-Fluoropyridin-3-yl)-2-hydroxyethyl)amino)-2-methylpropyl)piperidin-2-one] | < 25% | 50 to 75% |
| CC(C)(C[C@@H]1CCN(S(C)(=O)=O)C1)NC[C@H](O)c1cccc(F)c1 [Example 67, (R)-1-(3-Fluorophenyl)-2-((2-methyl-1-((S)-1-(methylsulfonyl)-pyrrolidin-3-yl)propan-2-yl)amino)ethan-1-ol] | < 25% | > 75% |
| CC(C)(C[C@H]1CCNC1)NC[C@H](O)c1cccc(F)c1 [Example 57, (R)-1-(3-Fluorophenyl)-2-((2-methyl-1-((R)-pyrrolidin-3-yl)propan-2-yl)amino)ethan-1-ol] | < 25% | > 75% |
| CC(=O)N1CCC[C@@H](CC(C)(C)NC[C@H](O)c2cccc(F)c2)C1 [Example 3, 1-((S)-3-(2-(((R)-2-(3-Fluorophenyl)-2-hydroxyethyl)amino)-2-methylpropyl)piperidin-1-yl)ethan-1-one hydrochloride] | 50 to 75% | > 75% |
| CC(C)(C[C@H]1CCCCO1)NC[C@H](O)c1cccc(F)c1 [Example 81, (R)-1-(3-Fluorophenyl)-2-((2-methyl-1-((R)-tetrahydro-2H-pyran-2-yl)propan-2-yl)amino)ethan-1-ol] | 25 to 50% | > 75% |
| COC(=O)N1CCC(CC(C)(C)NC[C@H](O)c2cccc(F)c2)CC1 [Example 43, Methyl (R)-4-(2-((2-(3-fluorophenyl)-2-hydroxyethyl)amino)-2-methyl-propyl)piperidine-1-carboxylate] | < 25% | 50 to 75% |
| CC(C)(C[C@@H]1CCNC1)NC[C@H](O)c1cncc(F)c1 [Example 69, (R)-1-(5-Fluoropyridin-3-yl)-2-((2-methyl-1-((S)-pyrrolidin-3-yl)-propan-2-yl)amino)ethan-1-ol] | < 25% | > 75% |
| CC(C)(C[C@@H]1CCCN(C(=O)OC(C)(C)C)C1)NC[C@H](O)c1cccc(C(F)(F)F)n1 [Example 20, tert-Butyl (S)-3-(2-(((S)-2-hydroxy-2-(6-(trifluoromethyl)pyridin-2-yl)-ethyl)amino)-2-methylpropyl)piperidine-1-carboxylate] | < 25% | > 75% |
| COC(=O)N1CCC[C@@H](CC(C)(C)NC[C@H](O)c2cccc(F)c2)C1 [Example 7, Methyl (S)-3-(2-(((R)-2-(3-fluorophenyl)-2-hydroxyethyl)amino)-2-methylpropyl)piperidine-1-carboxylate] | 50 to 75% | > 75% |
| CC(C)(C[C@H]1CCN(C(=O)OC(C)(C)C)C1)NC[C@H](O)c1cccc(F)c1 [Example 56, tert-Butyl (R)-3-(2-(((R)-2-(3-fluorophenyl)-2-hydroxyethyl)amino)-2-methylpropyl)pyrrolidine-1-carboxylate] | < 25% | 50 to 75% |
| CC(C)(C[C@@H]1CCCCO1)NC[C@H](O)c1cccc(F)c1 [Example 82, (R)-1-(3-Fluorophenyl)-2-((2-methyl-1-((S)-tetrahydro-2H-pyran-2-yl)propan-2-yl)amino)ethan-1-ol] | < 25% | > 75% |
| CN1CCC(CC(C)(C)NC[C@H](O)c2cccc(F)c2)CC1 [Example 32, (R)-1-(3-Fluorophenyl)-2-((2-methyl-1-(1-methylpiperidin-4-yl)-propan-2-yl)amino)ethan-1-ol dihydrochloride] | < 25% | 50 to 75% |
| CC(=O)N1CCC[C@@H](CC(C)(C)NC[C@H](O)c2cncc(F)c2)C1 [Example 13, 1-((S)-3-(2-(((R)-2-(5-Fluoropyridin-3-yl)-2-hydroxyethyl)amino)-2-methylpropyl)piperidin-1-yl)ethan-1-one dihydrochloride] | < 25% | > 75% |
| CC(C)(C[C@@H]1CCNC(=O)C1)NC[C@H](O)c1cncc(F)c1 [Example 55, (S)-4-(2-(((R)-2-(5-Fluoropyridin-3-yl)-2-hydroxyethyl)amino)-2-methylpropyl)piperidin-2-one] | 50 to 75% | > 75% |
| COC(=O)N1CCC(CC(C)(C)NC[C@H](O)c2cncc(F)c2)CC1 [Example 49, Methyl (R)-4-(2-((2-(5-Fluoropyridin-3-yl)-2-hydroxyethyl)amino)-2-methylpropyl)piperidine-1-carboxylate dihydrochloride] | < 25% | > 75% |
| CC(C)(CC1CCN(S(C)(=O)=O)CC1)NC[C@H](O)c1cncc(F)c1 [Example 35, (R)-1-(5-Fluoropyridin-3-yl)-2-((2-methyl-1-(1-(methylsulfonyl)-piperidin-4-yl)propan-2-yl)amino)ethan-1-ol dihydrochloride] | < 25% | 50 to 75% |
| CC(=O)N1CCC[C@@H](CC(C)(C)NC[C@H](O)c2cccc(C(F)(F)F)n2)C1 [Example 22, 1-((S)-3-(2-(((S)-2-Hydroxy-2-(6-(trifluoromethyl)pyridin-2-yl)ethyl)-amino)-2-methylpropyl)piperidin-1-yl)ethan-1-one dihydrochloride] | < 25% | > 75% |
| CC(C)(C[C@H]1CCCN(C(=O)OC(C)(C)C)C1)NC[C@H](O)c1cncc(F)c1 [Example 40, tert-Butyl (R)-3-(2-(((R)-2-(5-fluoropyridin-3-yl)-2-hydroxyethyl)-amino)-2-methylpropyl)piperidine-1-carboxylate] | < 25% | > 75% |
| COC(=O)N1CCC[C@@H](CC(C)(C)NC[C@H](O)c2cncc(F)c2)C1 [Example 17, Methyl (S)-3-(2-(((R)-2-(5-fluoropyridin-3-yl)-2-hydroxyethyl)amino)-2-methylpropyl)piperidine-1-carboxylate dihydrochloride] | > 75% | > 75% |
| CC(=O)N1CCC[C@H](CC(C)(C)NC[C@H](O)c2cncc(F)c2)C1 [Example 26, 1-((R)-3-(2-(((R)-2-(5-Fluoropyridin-3-yl)-2-hydroxyethyl)amino)-2-methylpropyl)piperidin-1-yl)ethan-1-one dihydrochloride] | < 25% | 50 to 75% |
